Experimental data taken from patent US6846777B2, “Synergistic biocidal composition” (Thor GmbH, priority 2000, dated 2005).
Values joined by “and” are separate entries in the source; they are usually repeats but may differ in a detail not shown here. Equal values may be shown once. Read-outs that look alike come from different tables or passages of the source.

Experiments:
Assay in all cases: MIC values / microbial growth in Sabouraud maltose broth and synergistic index (Kull)
Assay type in all cases: cell-based
[1] = tested on: Penicillium funiculosum DSM 12637; details: employed alone, incubation 96 hours at 25° C.; for MIC: Talaromyces funiculosus, DSM12637
Protocol: (§1) In addition to the biocide component and water, the aqueous mixtures also comprised a nutrient medium, viz. a Sabouraud maltose broth (commercial product, Merck No. 10393). The cell density was 10^6 cells/ml. The incubation time was 96 hours at 25° C. Each sample was incubated in a shaker-incubator at 120 rpm.
(§2) The synergistic index calculated by the method of F. C. Kull et al., Applied Microbiology, vol. 9 (1961), p. 538. Here, the synergistic index is calculated using the following formula: Synergistic index SI=Qa/QA+Qb/QB.
(§3) If the synergistic index has a value of above 1, this means that antagonism is present. If the synergistic index assumes a value of 1, this means that an additive effect of the two biocides exists. If the synergistic index assumes a value of less than 1, this means that synergism of the two biocides exists.
Again, the experimental batches contained a Sabouraud maltose broth as the nutrient medium. The cell density was 10^6 cells/ml. The incubation time was 96 hours at 25° C. Each sample was incubated in a shaker-incubator at 120 rpm.

[2] = tested on: Aspergillus niger DSM 1957; details: for Synergistic index Qa/QA + Qb/QB: single active ingredient alone; for MIC: Aspergillus niger, DSM1957
Protocol: as §1, §2, §3
(§4) Again, the experimental batches contained a Sabouraud maltose broth as the nutrient medium. The cell density was 10^6 cells/ml. The incubation time was 72 hours at 25° C. Each sample was incubated in a shaker-incubator at 120 rpm.

[3] = tested on: Penicillium funiculosum IMI 211742; details: employed alone, incubation 72 hours at 25° C.; for MIC: Talaromyces funiculosus, IMI211742
Protocol: as §1, §2, §3, §4

MIC ([2]; DCOIT alone (100.0 % by weight), 72 h/25° C., read-out: MIC at DCOIT concentration Qb) [µg/mL]	MIC ([2]; employed alone, incubation 72 hours at 25° C., read-out: MIC value) [µg/mL]	Molecule	MIC value [1] [ppm]	MIC at ZnPy concentration Qa ([2]; ZnPy alone (100.0 % by weight), 72 h/25° C.) [ppm]	MIC value ([2]; employed alone, incubation 72 hours at 25° C.) [ppm]	Synergistic index Qa/QA + Qb/QB ([2]; 72 h/25° C.)	MIC value [3]	MIC [1] [µg/mL]	MIC [3] [µg/mL]
		zinc pyrithione [ZnPy]	2	17.5	17.5	1.00	1 ppm and 0.75 ppm		
0.75	0.75	CCCCCCCCn1sc(Cl)c(Cl)c1=O [DCOIT, 4,5-dichloro-2-n-octyl-4-isothiazolin-3-one]				1.00		2	1
		CCCCNC(=O)OCC#CI [IPBC, 3-iodo-2-propynyl N-butylcarbamate]						2	0.75
		CCCCCCCCn1sccc1=O [OIT, 2-n-octylisothiazolin-3-one]	0.5						
